This assay concerns P388. Kind of assay: Cytotoxicity against mouse P388 cells. The class given is functional, cell-based.

Broadly, the EC50 is the concentration giving half of the maximal effect.

Turning to `Cn1c(=O)c2c(ncn2C)n(C)c1=N`, the EC50 was more than 10 µg/mL.

(Values after ChEMBL document CHEMBL1150714, “1,3,7-Trimethylguanine from the Sponge Latrunculia brevis” (J Nat Prod, 1987).)
